Laboratory results from PubChem BioAssay AID1996.
≈ marks a conversion by molar mass, not a printed value.

Settings: buffer; pH 7.4; 200.0 µM

| Compound | solubility kinetic |
| --- | --- |
| CCOP(=O)(OCC)C(Nc1ccc(C)cc1)c1ccco1 (stereo not given) | 46.3 µg/mL (≈ 143 µM) |
| CCc1cccc(C)c1NS(=O)(=O)Cc1ccccc1 | > 43.4 µg/mL |
| Cc1c(C(=O)NC2CCCC2)oc2ccccc12 | 33.9 µg/mL (≈ 139 µM) |
| COc1ccc(N2CCOCC2)c(NC(=O)c2cccnc2)c1 | > 47 µg/mL |
| COc1ccc(Cl)cc1NC(=O)C(OC)c1ccccc1 (stereo not given) | 3.9 µg/mL (≈ 12.8 µM) |
| C#CCOc1nc2c(c(=O)n(C)c(=O)n2C)n1Cc1ccccc1 | 8.9 µg/mL (≈ 27.4 µM) |
| N#CCCN(Cc1cccnc1)C(=S)NC(=O)c1ccccc1 | > 48.7 µg/mL |
| CCN(CC)CCC/C(=N\O)C(O)(c1ccccc1)c1ccccc1 | > 51.1 µg/mL |
| COc1cc(CNc2ccc(N3CCCC3)cc2)cc(Cl)c1OC | 9.7 µg/mL (≈ 28 µM) |
| O=C(NCCc1c[nH]c2ccccc12)c1cnccn1 | > 39.9 µg/mL |
| O=C(COC(=O)c1cc[n+]([O-])cc1)Nc1ccc([N+](=O)[O-])cc1 | > 47.6 µg/mL |
| CC(=O)c1c(C)[nH]c(C(=O)Nc2ccc(Cl)cc2F)c1C | 0.7 µg/mL (≈ 2.27 µM) |
| Oc1ccccc1CNc1nccs1 | > 30.9 µg/mL |
| CCOC(=O)c1ccccc1NC(=O)COC(=O)C1CCCC1 | 3.1 µg/mL (≈ 9.71 µM) |
| Cc1ccnc(NC(=O)c2cccc(NC(=O)c3ccccc3C)c2)c1 | 2.1 µg/mL (≈ 6.08 µM) |
| COc1ccc(OC)c(NC(=O)NCCc2cccc(Cl)c2)c1 | 1.9 µg/mL (≈ 5.67 µM) |
| Cc1ccc2cccc(OCC(=O)N3CCc4ccccc43)c2n1 | < 0.3 µg/mL |
| CCOC(=O)c1ccc(NC(=O)CC2SC3=NCCN3C2=O)cc1 (stereo not given) | > 52.1 µg/mL |
| CC(C)c1ccc(OCCCN2CCCC2)cc1 | 28.8 µg/mL (≈ 116 µM) |
| Cc1onc(-c2c(F)cccc2Cl)c1C(=O)N1CCCCC1 | > 48.4 µg/mL |
| O=C(Nc1ccccc1)C1CC(=O)n2c(nc3ccccc32)N1 (stereo not given) | 0.9 µg/mL (≈ 2.94 µM) |
| COc1ccc(OC)c(Nc2nc(N)nc(CCl)n2)c1 | 22.4 µg/mL (≈ 75.7 µM) |
| Cc1onc(-c2ccccc2Cl)c1C(=O)OCC(=O)N1CCCCC1 | > 54.4 µg/mL |
| Cc1cccc(-c2nnc(SCC(=O)NC3CC3)n2C)c1 | > 45.4 µg/mL |

| Compound | solubility kinetic |
| --- | --- |
| CC(C)(C)c1cc(CCC(=O)N2CCC2)cc(C(C)(C)C)c1O | 42.6 µg/mL (≈ 134 µM) |
| Cc1oc(C(C)(C)C)cc1C(=O)Nc1ccc(N2CCOCC2)cc1 | 4.3 µg/mL (≈ 12.6 µM) |
| COc1cccc(CC(=O)Nc2ccc(-c3csc(C)n3)cc2)c1 | 2.5 µg/mL (≈ 7.39 µM) |
| CCOc1ccc(NC(=O)CN(C)S(=O)(=O)c2cnc[nH]2)cc1 | > 50.8 µg/mL |
| Cc1cnc(NC(=O)/C=C/c2ccc(Br)o2)s1 | 0.8 µg/mL (≈ 2.55 µM) |
| Cc1ccc(S(=O)(=O)NCc2csc(C)n2)cc1 | > 42.4 µg/mL |
| COc1ccccc1C(=O)OCC(=O)c1ccc(CNC(C)=O)s1 | 50.1 µg/mL (≈ 144 µM) |
| CC(CN1C(C)CCCC1C)OC(=O)c1ccccc1F.Cl (stereo not given) | > 49.5 µg/mL |
| O=C(O)CCNC(=O)C12CC3CC(CC(C3)C1)C2 | > 37.7 µg/mL |
| COc1ccc(-c2c3c(=O)n(C)c(=O)n(C)c3cn2-c2ccc(O)cc2)cc1 | 20.4 µg/mL (≈ 54.1 µM) |
| Cn1cnnc1SCC(=O)Nc1ccc(F)cc1 | > 39.9 µg/mL |
| CC(=O)Nc1ccc2oc(-c3ccccc3)nc2c1 | 13.1 µg/mL (≈ 51.9 µM) |
| Cc1csc(SC(C)C(=O)NCc2ccc3c(c2)OCO3)n1 (stereo not given) | 49 µg/mL (≈ 146 µM) |
| CN1CCN(CC(O)COc2ccccc2)CC1 (stereo not given) | 33.4 µg/mL (≈ 133 µM) |
| CC(=O)c1cn(CC(=O)Nc2ccccc2Cl)c2ccccc12 | 1 µg/mL (≈ 3.06 µM) |
| CCc1ccc2[nH]c(C(=O)Nc3ccc(F)cc3Br)cc2c1 | 0.9 µg/mL (≈ 2.49 µM) |
| Cl.NC(Cc1ccccc1)Cc1ccccc1 | > 37.2 µg/mL |
| COc1ccc(OC)c(NC(=O)CCn2ccnc2)c1 | 38.9 µg/mL (≈ 141 µM) |
| CC1CN(S(=O)(=O)c2ccc(C(=O)O)cc2)CC(C)O1 (stereo not given) | > 44.9 µg/mL |
| Cc1c(Cl)cccc1NC(=S)NCC(O)c1ccccc1 (stereo not given) | 46.7 µg/mL (≈ 146 µM) |
| N#CCn1cnc2c(oc3ccccc32)c1=O | > 33.8 µg/mL |
| Cc1ccc(NS(=O)(=O)c2csc(C(N)=O)c2)cc1C | 18.9 µg/mL (≈ 60.9 µM) |
| COC(=O)Nc1nc(-c2cc(Cl)ccc2Cl)cs1 | < 0.3 µg/mL |
| Cc1ccc(NC2SC(=O)N(Cc3cccc(C(=O)O)c3)C2=O)c(C)c1 (stereo not given) | 53.1 µg/mL (≈ 143 µM) |

| Compound | solubility kinetic |
| --- | --- |
| COc1ccc(S(=O)(=O)N2CCNCC2)cc1 | 31.1 µg/mL (≈ 121 µM) |
| COc1ccc2ccccc2c1C1NC(=O)NC(C)=C1[N+](=O)[O-] (stereo not given) | 2.1 µg/mL (≈ 6.7 µM) |
| COc1ccc(C2SCC(=O)N2c2ccccc2)cc1 (stereo not given) | 38.6 µg/mL (≈ 135 µM) |
| CCOc1ccc(S(=O)(=O)N(C)CC(=O)NC2CC2)cc1 | > 46.9 µg/mL |
| Nc1cc(C(F)(F)F)ccc1N1CCOCC1 | 36.7 µg/mL (≈ 149 µM) |
| COc1ccccc1OCCCC(=O)NC(C)c1ccccc1 (stereo not given) | > 47 µg/mL |
| Cc1ccc(NC(=O)CN2C(=O)c3ccccc3C2=O)c(C)c1 | 4.4 µg/mL (≈ 14.3 µM) |
| Cc1ccccc1NC(=S)N(Cc1ccccc1)Cc1cccnc1 | 43.9 µg/mL (≈ 126 µM) |
| O=C(CCCc1cccs1)NCCc1c[nH]c2ccccc12 | 44.9 µg/mL (≈ 144 µM) |
| O=C(c1cccc([N+](=O)[O-])c1)N1CCCC(C(=O)N2CCCCCC2)C1 (stereo not given) | > 53.9 µg/mL |
| Cc1ccccc1NC(=O)CC(=O)Nc1ccccc1C | > 42.4 µg/mL |
| CCCC1(c2ccccc2)NC(=O)N(CC(=O)Nc2ccc(N3CCOCC3)cc2)C1=O (stereo not given) | > 65.5 µg/mL |
| CCOC(=O)C1CCN(C/C=C/c2ccccc2)CC1 | 27.2 µg/mL (≈ 99.5 µM) |
| CC(=O)Nc1ccc(SCC(=O)NC(=O)c2ccc(S(=O)(=O)N(C)C)cc2)cc1 | > 65.3 µg/mL |
| CCCNC(=O)CN1C(=O)NC(CCSC)C1=O (stereo not given) | > 41 µg/mL |
| CCOc1ccccc1CNCCc1ccc2c(c1)OCO2.Cl | 49.6 µg/mL |
| N#CC1c2ccccc2C=CN1C(=O)c1ccccc1 (stereo not given) | 27.6 µg/mL (≈ 106 µM) |
| O=C1OC(c2ccccc2)=N/C1=C\C=C\c1ccco1 | 2 µg/mL (≈ 7.54 µM) |
| Cc1ccccc1NC(=O)C(=O)NCCCN1CCOCC1 | > 45.8 µg/mL |
| O=C(Cn1cccc(C(F)(F)F)c1=O)c1ccc(Cl)cc1 | > 47.4 µg/mL |
| Cc1cccc(OC(=O)c2cccnc2)c1 | 12.6 µg/mL (≈ 59.1 µM) |
| Cc1cc(C)nc(N2CCN(c3ccc(F)cc3)CC2)n1 | 2.1 µg/mL (≈ 7.33 µM) |
| N#Cc1cn(-c2cccc(C(F)(F)F)c2)c(=O)[nH]c1=O | > 42.2 µg/mL |
| N#CCc1cccnc1Sc1ccc(Cl)cc1 | > 39.1 µg/mL |

| Compound | solubility kinetic |
| --- | --- |
| NS(=O)(=O)c1cccc(NC(=O)CCCC2CCCCC2)c1 | 8.8 µg/mL (≈ 27.1 µM) |
| Cc1ccc(CNC(=O)[C@@H](NC(=O)Cc2ccccc2)C(C)C)cc1 | 7.4 µg/mL (≈ 21.9 µM) |
| C=CCSc1nc2ccccc2n2cnnc12 | > 36.3 µg/mL |
| CCCCNC(=O)CC1NCCNC1=O (stereo not given) | > 32 µg/mL |
| Cc1cc(C=O)c(C)n1C1CC1 | 17.6 µg/mL (≈ 108 µM) |
| Clc1cc(/C=N\NC2=NCCN2)cc(Cl)n1 | > 38.7 µg/mL |
| Cc1ccc(/C(N)=N/OC(=O)c2ccc3ccccc3c2)cc1 | 1 µg/mL (≈ 3.29 µM) |
| O=C(CN1CCCCC1)c1c[nH]c2ccccc12 | > 36.3 µg/mL |
| CSc1ccc(Cl)c(C(=O)N2CCN(CC(=O)N3CCCC3)CC2)c1 | > 57.3 µg/mL |
| Cc1ccccc1OCC(=O)Nc1ccc2c(c1)n(C)c(=O)n2C | 46.2 µg/mL (≈ 142 µM) |
| COc1ccc(S(=O)(=O)n2ccnc2C)c(C)c1C | > 42.1 µg/mL |
| CCC(CC)C(=O)c1c[nH]c(C(=O)NCc2ccncc2)c1 | 44.2 µg/mL (≈ 148 µM) |
| CCCC1(c2ccccc2)NC(=O)NC1=O (stereo not given) | > 32.7 µg/mL |
| O=C(Nc1ccccc1)N1CCCC1c1cccs1 (stereo not given) | 39.9 µg/mL (≈ 146 µM) |
| C[C@]12C=CC(=O)C=C1CC[C@@H]1C2=CC[C@]2(C)[C@@H](C(=O)CN3CCN(c4cc(N5CCCC5)nc(N5CCCC5)n4)CC3)CC[C@@H]12.O=C(O)/C=C\C(=O)O | 48.2 µg/mL |
| Cc1ccc(C)c(NC(=O)CCOc2ccccc2)c1 | 3.7 µg/mL (≈ 13.7 µM) |
| O=C1CN(S(=O)(=O)c2ccccc2Cl)CCN1 | > 41.2 µg/mL |
| COC(=O)c1ccc(N2CCOCC2)c(NC(=O)c2ccco2)c1 | 2.8 µg/mL (≈ 8.48 µM) |
| O=C(Nc1ccccc1)NC1(C(=O)N2CCC(O)CC2)CCCCC1 | > 51.8 µg/mL |
| O=S(=O)(O)c1ccc(SCc2ccccc2)nc1 | > 42.2 µg/mL |
| CN(Cc1ccccc1)S(=O)(=O)c1ccc(Cl)c(C(=O)O)c1 | > 51 µg/mL |
| CCC(C)CN1CCC(CO)(Cc2ccccc2Cl)CC1 (stereo not given) | > 46.5 µg/mL |
| O=C1CC(NCc2ccc(F)cc2)C(=O)N1c1ccccc1 (stereo not given) | 43.6 µg/mL (≈ 146 µM) |
| Cc1cc(N2CCOCC2)n2cc(-c3ccccc3)nc2n1 | 12.3 µg/mL (≈ 41.8 µM) |

| Compound | solubility kinetic |
| --- | --- |
| Cc1cccc(N2Cc3ccc(Br)cc3C2)c1 | 4.8 µg/mL (≈ 16.7 µM) |
| O=C(COC(=O)c1ccc(F)cc1Cl)NC1CCCCCCC1 | 21.2 µg/mL (≈ 62 µM) |
| CC1(c2ccccc2)CC(C)(C)N(C(N)=O)c2ccccc21 (stereo not given) | 40.9 µg/mL (≈ 139 µM) |
| O=C(c1ccc(F)cc1)N1CCOCC1 | > 31.4 µg/mL |
| N#CCSc1ccccc1NC(=O)CN1C(=O)C(=O)N(Cc2ccccc2)C1=O | 43.3 µg/mL (≈ 106 µM) |
| CCc1noc(C)c1C(=O)OCC(=O)NC(=O)c1ccccc1OC | 18.6 µg/mL (≈ 53.7 µM) |
| Cc1ccc(-c2ccnc3cc(C)nn23)cc1 | > 33.5 µg/mL |
| Nc1nc(Cl)nc2ncn(Cc3ccccc3)c12 | > 39 µg/mL |
| N#Cc1c(SCC(=O)O)nc(N2CCOCC2)c2c1CCCC2 | > 50 µg/mL |
| CCOC(=O)NC(=S)Nc1ccc(C(C)(C)C)cc1 | 1.1 µg/mL (≈ 3.92 µM) |
| Cc1ccc(S(=O)(=O)N2CCOCC2)cc1NC(=O)COC(=O)Cc1ccc(Cl)cc1 | 18.7 µg/mL (≈ 40 µM) |
| CCOc1ccc(C(C)=O)cc1Cn1ccsc1=N.Cl | > 46.9 µg/mL |
| Cc1ccccc1NC(=O)c1ccccc1-c1ccccc1 | 36.5 µg/mL (≈ 127 µM) |
| COC(=O)c1sc(-c2ccccc2)cc1NC(=O)C1CC1 | 0.7 µg/mL (≈ 2.32 µM) |
| Cc1nc2ccc([N+](=O)[O-])cc2c(=O)n1Cc1ccc(F)cc1 | 4.7 µg/mL (≈ 15 µM) |
| Nc1ccc(CCNc2ncnc3c2ncn3[C@@H]2O[C@H](CO)[C@@H](O)[C@H]2O)cc1 | > 58 µg/mL |
| CCOC(=O)N1CCN(C(=O)c2ccc(S(=O)(=O)Nc3ccccc3)cc2)CC1 | > 62.6 µg/mL |
| COc1ccccc1NC(=O)CC1CCCC1 | > 35 µg/mL |
| COc1cc(C(N)=O)cc(Cl)c1OC | > 32.3 µg/mL |
| COc1ccc(C(=O)OCC(=O)NCCN2C(=O)CSC2=O)cc1[N+](=O)[O-] | > 59.6 µg/mL |
| Cc1ccc(-n2c(O)c(C=NCCCn3ccnc3)c(=O)[nH]c2=O)cc1 | > 53 µg/mL |
| CN(C)CCN=Cc1c(O)n(Cc2ccc3c(c2)OCO3)c(=O)c2ccccc12 | 16.3 µg/mL (≈ 41.4 µM) |
| O=C(Nc1ccc(Cl)cc1)c1ccco1 | 30.8 µg/mL (≈ 139 µM) |
| COc1ccc(CCNC(=O)c2noc(C(C)C)c2[N+](=O)[O-])cc1OC | > 54.5 µg/mL |
